The values that follow come from patent US20110100079A1, “METHOD FOR IMPARTING STRESS TOLERANCE TO PLANT” (priority 2007, published 2011).

Common to all, as to format: in vivo
The subject of experiment [1] is “Momotaro” tomato. Kind of experiment: Example 4 salt stress tolerance imparting test (tomato, tap water + NaCl). Conditions: tap water + NaCl 3510 ppm, leaf, 100 ppm, 2 weeks. From the text: NaCl concentration 3510 ppm (water potential by NaCl: […]) (4) Cultivation period: two weeks (5) Plant preparation: A 50-cell tray was filled with Kureha gardening soil manufactured by Kureha Corporation (fertilizer components: N:P:K=0.4:1.9:0.6 g/kg soil), and seeds of a “Momotaro” tomato were sowed, thinly covered with Kureha gardening soil, and sufficiently irrigated to allow the seeds to sprout. When the leaves in the 2-leaf stage fully unfolded, the soil on the tomato roots was carefully washed away with running water, and a test was performed. (6) The chemicals used and the concentration of a treatment solution were as in Example 1 (7) Amount of application: 10 ml/specimen for leaf spraying, 50 ml/specimen for fertigation Method of Salt Stress Tolerance Imparting Test […]

Experiment [2] has as its system “Momotaro” tomato. Kind of experiment: Example 1 salt stress tolerance imparting test (tomato, hydroponic, Otsuka 1/2A + NaCl). Conditions: NaCl 3510 ppm, leaf, 100 ppm, 2 weeks. The method, then:
(1) Salt stress-free test conditions: NaCl concentration (water potential by Nan): 0 ppm (0 MPa). Other cultivation conditions were as the same as the conditions of the drying stress test.
When the leaves in the 2-leaf stage fully unfolded, the soil on the tomato roots was carefully washed away with running water, and a test was performed.
Method of Salt Stress Tolerance Imparting Test
The environmental conditions in a climatic chamber were controlled so as to have a temperature of 23° C., an illuminance by a fluorescent light of 5000 Lux, and a daily light-dark cycle of a 16-hour light period and an 8-hour dark period. […] A treatment solution containing a compound of Table 1 in a specific concentration (the remainder was water) was prepared and sprayed onto the leaves or applied to the underground portion. In addition, a control plot to which no NaCl was added, not imposing a salt stress (this is a control plot for plant body weight 2 for Formula (ii) and is a stress-free control plot) and a control plot to which NaCl was added in various concentrations, imposing a salt stress, and to which the treatment solution was not applied (this is a control plot for plant body weight 1 for Formula (ii) and is a control plot including a salt stress) were prepared as controls. Ten specimens were prepared for each of the test plot and the control plots, and a plant stress level and an extent of imparting plant stress tolerance were calculated according to Formulas (II) above using as a fresh plant body weight the average of the fresh plant body weights of each specimen 2 weeks after the beginning of the test.

Experiment [3] relates to tomato. Put plainly: Example 8 temperature stress test (tomato), soil culture. Particulars: leaf, 100 ppm, 2 weeks. The procedure: Other Conditions were as in Example 5. The environmental conditions in a climatic chamber were controlled so as to have an illuminance by a fluorescent light of 5000 Lux, a daily light-dark cycle of a 16-hour light period and an 8-hour dark period, and various temperatures. Tomatoes as prepared above were transplanted in size-3 (9 cm) pots. A treatment solution containing a compound of Table 1 in a specific concentration (the remainder was water) was prepared and sprayed onto the leaves or applied to the underground portions. […] A comparative example was constructed to reflect the temperature stress-free optimum cultivation conditions to investigate the plant energizing ability. […] Moreover, when the products of the present invention and the comparative products were compared, the stress tolerance imparting ability of the products of the present invention was higher in respective temperature stress conditions.

Regarding “Sucrose fatty acid ester (C18, HLB = 15) [Product of present invention 20]”, the “Extent of imparting plant stress tolerance” value was found to be 116% in experiment [1] and 113% in experiment [2]. The “Fresh weight, relative value (untreated plot = 100), Comparison 1” value in experiment [3] (stress-free: tomato soil culture, cultivation temperature 23, EC 1, pF 1.7, two-leaf stage) was 102. In addition, the “Fresh weight, relative value (untreated plot = 100), Test 1” value in experiment [3] (tomato soil culture, cultivation temperature 10, EC 1, pF 1.7, two-leaf stage) turned out to be 114. Also, the “Fresh weight, relative value (untreated plot = 100), Test 2” value in experiment [3] (tomato soil culture, cultivation temperature 16, EC 1, pF 1.7, two-leaf stage) is given as 116. Besides, the “Fresh weight, relative value (untreated plot = 100), Test 3” value in experiment [3] (tomato soil culture, cultivation temperature 29, EC 1, pF 1.7, two-leaf stage) was found to be 133. Further, the “Fresh weight, relative value (untreated plot = 100), Test 4” value in experiment [3] (tomato soil culture, cultivation temperature 35, EC 1, pF 1.7, two-leaf stage) was 122.
